Assay [1] in a line: Inhibition of human full length […] gene fusion of J-PKAc alpha chimeric protein expressed in Escherichia coli BL21 (DE3) cells using CREB KRREILSRRPSYR-biotinylated peptide as substrate incubated for 45 mins in presence of ATP by ELISA.
Assay [2] has as its target cAMP-dependent protein kinase catalytic subunit alpha (Homo sapiens, UniProt P17612). Nature of the assay: Inhibition of wild type PKAc alpha (unknown origin) using CREB KRREILSRRPSYR-biotinylated peptide as substrate incubated for 45 mins in presence of ATP by ELISA. For orientation: ELISA stands for enzyme-linked immunosorbent assay.
The nature of assay [3]: Binding affinity to human full length […] gene fusion of J-PKAc alpha chimeric protein expressed in Escherichia coli BL21 (DE3) cells assessed as dissociation constant by MST assay.
For assay [4], the target named is Dual specificity tyrosine-phosphorylation-regulated kinase 1A (Homo sapiens) (UniProt Q13627). Nature of the assay: Inhibition of human DYRK1A at 50 nM in presence of ATP by radiometric hotspot kinase assay relative to control.
Assay [5] deals with Dual specificity tyrosine-phosphorylation-regulated kinase 1B (Homo sapiens) (UniProt Q9Y463). Nature of the assay: Inhibition of human DYRK1B at 50 nM in presence of ATP by radiometric hotspot kinase assay relative to control.
Dual specificity tyrosine-phosphorylation-regulated kinase 1B (Homo sapiens), sequence (Q9Y463 whole entry, looked up): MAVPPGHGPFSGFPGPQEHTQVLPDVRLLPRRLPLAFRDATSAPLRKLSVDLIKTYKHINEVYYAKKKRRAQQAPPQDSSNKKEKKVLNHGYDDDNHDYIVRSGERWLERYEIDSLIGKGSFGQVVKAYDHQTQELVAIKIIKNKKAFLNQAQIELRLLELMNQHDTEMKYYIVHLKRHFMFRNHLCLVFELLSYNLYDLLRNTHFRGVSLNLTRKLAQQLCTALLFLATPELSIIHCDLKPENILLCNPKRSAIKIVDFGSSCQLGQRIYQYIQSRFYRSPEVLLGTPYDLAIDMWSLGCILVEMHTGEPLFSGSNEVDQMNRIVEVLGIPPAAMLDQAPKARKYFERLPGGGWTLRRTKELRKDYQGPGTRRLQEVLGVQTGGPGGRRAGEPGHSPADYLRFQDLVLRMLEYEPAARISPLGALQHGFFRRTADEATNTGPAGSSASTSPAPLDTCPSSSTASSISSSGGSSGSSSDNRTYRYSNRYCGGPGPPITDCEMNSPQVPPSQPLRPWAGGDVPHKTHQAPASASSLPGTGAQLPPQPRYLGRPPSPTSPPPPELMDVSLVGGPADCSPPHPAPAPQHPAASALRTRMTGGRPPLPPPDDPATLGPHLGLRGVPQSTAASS
Assay [6] concerns the target T1, Dual specificity tyrosine-phosphorylation-regulated kinase 2 (Homo sapiens) (UniProt Q92630).
T1 sequence (whole entry): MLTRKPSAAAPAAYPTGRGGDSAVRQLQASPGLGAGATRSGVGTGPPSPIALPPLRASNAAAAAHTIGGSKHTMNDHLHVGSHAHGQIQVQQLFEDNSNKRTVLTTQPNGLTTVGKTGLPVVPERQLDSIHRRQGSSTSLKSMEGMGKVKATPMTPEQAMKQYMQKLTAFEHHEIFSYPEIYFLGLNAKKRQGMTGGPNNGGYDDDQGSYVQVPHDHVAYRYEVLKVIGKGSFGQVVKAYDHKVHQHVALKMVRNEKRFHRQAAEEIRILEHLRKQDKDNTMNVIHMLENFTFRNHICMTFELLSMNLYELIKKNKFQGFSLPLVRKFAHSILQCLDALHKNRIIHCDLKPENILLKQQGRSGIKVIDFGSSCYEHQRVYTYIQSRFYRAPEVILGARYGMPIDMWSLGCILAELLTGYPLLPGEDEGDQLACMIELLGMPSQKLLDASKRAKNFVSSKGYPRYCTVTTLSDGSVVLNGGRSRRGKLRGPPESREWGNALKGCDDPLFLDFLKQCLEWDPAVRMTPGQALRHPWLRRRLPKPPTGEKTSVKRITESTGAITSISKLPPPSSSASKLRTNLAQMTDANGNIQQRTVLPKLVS
As to the kind of experiment: Inhibition of human DYRK2 at 50 nM in presence of ATP by radiometric hotspot kinase assay relative to control.

The target in assay [7] is T2, Dual specificity tyrosine-phosphorylation-regulated kinase 3 (Homo sapiens) (UniProt O43781).
T2 sequence (whole entry): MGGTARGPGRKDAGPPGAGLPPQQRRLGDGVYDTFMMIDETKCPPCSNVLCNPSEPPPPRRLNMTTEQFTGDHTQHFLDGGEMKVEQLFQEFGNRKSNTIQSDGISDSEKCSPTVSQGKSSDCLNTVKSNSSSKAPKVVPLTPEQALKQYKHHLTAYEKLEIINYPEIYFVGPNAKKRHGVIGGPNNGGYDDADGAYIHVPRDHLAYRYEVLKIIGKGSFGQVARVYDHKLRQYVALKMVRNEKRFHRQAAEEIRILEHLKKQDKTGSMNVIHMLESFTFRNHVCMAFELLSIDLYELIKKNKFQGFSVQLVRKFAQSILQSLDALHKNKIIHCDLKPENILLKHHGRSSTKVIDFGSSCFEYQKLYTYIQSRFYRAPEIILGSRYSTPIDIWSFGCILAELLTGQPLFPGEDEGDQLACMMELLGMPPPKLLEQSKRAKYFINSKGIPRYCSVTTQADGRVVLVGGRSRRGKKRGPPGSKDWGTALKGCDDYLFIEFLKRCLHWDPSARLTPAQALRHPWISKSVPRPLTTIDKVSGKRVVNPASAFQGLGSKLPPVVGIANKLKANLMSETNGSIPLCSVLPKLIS
As to the kind of experiment: Inhibition of human DYRK3 at 50 nM in presence of ATP by radiometric hotspot kinase assay relative to control.

This note sets out measurements from ChEMBL document CHEMBL5370622 (J Nat Prod, 2023).

Broadly, the IC50 is the concentration needed to halve the response being measured. What is called Kd is the constant that tells how readily two partners part at equilibrium. The term inhibition denotes the change of the read-out against control, counted positive when it falls.

Consider `Cn1cncc1C1=CN(c2ncnc3[nH]cnc23)CCS1(=O)=O`, for which the IC50 in assay [1] is greater than 200 µM.
Take `Cn1cncc1C1=CN(c2ncnc3[nH]c(=O)[nH]c23)CCS1`: the IC50 in assay [1] amounted to 79 µM; in assay [2] it was 90 µM. Also, in assay [3], the Kd was found to be 37 µM.
Turning to `Cn1cncc1C1=CN(c2ncnc3[nH]cnc23)CCS1`, the inhibition in assay [4] was 23%; in assay [5] it was 23%; in assay [6] it was 21%; in assay [7], 16%.
In the case of `Cn1cnc(Br)c1C1=CN(c2ncnc3[nH]cnc23)CCS1`, the IC50 came out at 1.04 µM in assay [1] and 1.1 µM in assay [2]. Also, in assay [3], the Kd came to 3 µM. Besides, the inhibition in assay [4] came out at 61%; in assay [5] it was 49%; in assay [6] it was 56%; in assay [7] it was 49%.
As to `Cn1c(Br)nc(Br)c1C1=CN(c2ncnc3[nH]cnc23)CCS1`, the IC50 in assay [1] was greater than 200 µM.
In the case of `Cn1cncc1C1=CN(c2ncnc3[nH]cnc23)CC[S+]1[O-]` (configuration not stated), the IC50 in assay [1] is greater than 200 µM.
